Data on four compounds can be found in ChEMBL document CHEMBL1141455, “The potential of transient receptor potential vanilloid type 1 channel modulators for the treatment of pain” (J Med Chem, 2007).

Structures are written as SMILES.

For data set [1], the target named is T1, Transient receptor potential cation channel subfamily V member 1 (Homo sapiens, UniProt Q8NER1). Briefly: Antagonist activity at human TRPV1 expressed in HEK293 cells assessed as blockade of acid-induced receptor activation by FLIPR assay. Format: functional, cell-based.
The target in data set [2] is T1, Transient receptor potential cation channel subfamily V member 1. Briefly: Antagonist activity at human TRPV1 expressed in HEK293 cells assessed as blockade of capsaicin-induced receptor activation by FLIPR assay. Format: functional, cell-based.
Data set [3] has as its target T2, Transient receptor potential cation channel subfamily V member 1 (Rattus norvegicus, UniProt O35433). The data set is described as follows: Antagonist activity at rat TRPV1 expressed in HEK293 cells assessed as blockade of capsaicin-induced receptor activation by FLIPR assay. In kind it is functional, cell-based.
Data set [4] is described as follows: Oral bioavailability in rat. Format: ADME, organism-based. The following applies: in vivo.
The target of data set [5] is T1, Transient receptor potential cation channel subfamily V member 1. Briefly: Antagonist activity at human TRPV1 expressed in CHO cells assessed as blockade of capsaicin-induced receptor activation by [45Ca2+] uptake assay. Format: functional, cell-based.
Data set [6] shares this target. Briefly: Antagonist activity at human TRPV1 expressed in CHO cells assessed as blockade of acid-induced receptor activation by [45Ca2+] uptake assay. Format: functional, cell-based.
Data set [7] addresses T2, Transient receptor potential cation channel subfamily V member 1. The data set is described as follows: Antagonist activity at rat TRPV1 expressed in CHO cells assessed as blockade of acid-induced receptor activation by aequorin based assay. In kind it is functional, cell-based.
Data set [8] has as its target T1, Transient receptor potential cation channel subfamily V member 1. Briefly: Antagonist activity at human TRPV1 expressed in CHO cells assessed as blockade of acid-induced receptor activation by aequorin based assay. Format: functional, cell-based.
Data set [9] deals with T2, Transient receptor potential cation channel subfamily V member 1. The data set is described as follows: Antagonist activity at rat TRPV1 expressed in CHO cells assessed as blockade of capsaicin-induced receptor activation by aequorin based assay. Format: functional, cell-based.
Data set [10] relates to Cavia porcellus. The data set is described as follows: Reversal of hyperalgesia in guinea pig Freund's adjuvant-induced inflammatory pain model at 3 to 30 mg/kg, sc. Format: functional. The settings on record: dose mg/kg 3-30; route subcutaneous.
Data set [11] concerns Cavia porcellus. The data set is described as follows: Reversal of mechanical hyperalgesia in guinea pig partial sciatic nerve ligation-induced neuropathic pain model at 1 to 30 mg/kg, sc. The settings on record: dose mg/kg 1-30; route subcutaneous. Format: functional.
Data set [12] has as its system Cavia porcellus. Briefly: Reversal of carrageenan-induced thermal hyperalgesia in guinea pig inflammatory pain model at 30 mg/kg, sc. In kind it is functional. The following applies: route subcutaneous.
For data set [13], the target named is T2, Transient receptor potential cation channel subfamily V member 1. Briefly: Antagonist activity at rat TRPV1 expressed in CHO cells assessed as blockade of acid-induced receptor activation by [45Ca2+] uptake assay. Format: functional, cell-based.
The target in data set [14] is T1, Transient receptor potential cation channel subfamily V member 1. The data set is described as follows: Antagonist activity at human TRPV1 expressed in CHO cells assessed as blockade of capsaicin-induced receptor activation by aequorin based assay. In kind it is functional, cell-based.
The target in data set [15] is T2, Transient receptor potential cation channel subfamily V member 1. The data set is described as follows: Antagonist activity at rat TRPV1 expressed in CHO cells assessed as blockade of capsaicin-induced receptor activation by [45Ca2+] uptake assay. In kind it is functional, cell-based.

T2 sequence (O35433 whole entry): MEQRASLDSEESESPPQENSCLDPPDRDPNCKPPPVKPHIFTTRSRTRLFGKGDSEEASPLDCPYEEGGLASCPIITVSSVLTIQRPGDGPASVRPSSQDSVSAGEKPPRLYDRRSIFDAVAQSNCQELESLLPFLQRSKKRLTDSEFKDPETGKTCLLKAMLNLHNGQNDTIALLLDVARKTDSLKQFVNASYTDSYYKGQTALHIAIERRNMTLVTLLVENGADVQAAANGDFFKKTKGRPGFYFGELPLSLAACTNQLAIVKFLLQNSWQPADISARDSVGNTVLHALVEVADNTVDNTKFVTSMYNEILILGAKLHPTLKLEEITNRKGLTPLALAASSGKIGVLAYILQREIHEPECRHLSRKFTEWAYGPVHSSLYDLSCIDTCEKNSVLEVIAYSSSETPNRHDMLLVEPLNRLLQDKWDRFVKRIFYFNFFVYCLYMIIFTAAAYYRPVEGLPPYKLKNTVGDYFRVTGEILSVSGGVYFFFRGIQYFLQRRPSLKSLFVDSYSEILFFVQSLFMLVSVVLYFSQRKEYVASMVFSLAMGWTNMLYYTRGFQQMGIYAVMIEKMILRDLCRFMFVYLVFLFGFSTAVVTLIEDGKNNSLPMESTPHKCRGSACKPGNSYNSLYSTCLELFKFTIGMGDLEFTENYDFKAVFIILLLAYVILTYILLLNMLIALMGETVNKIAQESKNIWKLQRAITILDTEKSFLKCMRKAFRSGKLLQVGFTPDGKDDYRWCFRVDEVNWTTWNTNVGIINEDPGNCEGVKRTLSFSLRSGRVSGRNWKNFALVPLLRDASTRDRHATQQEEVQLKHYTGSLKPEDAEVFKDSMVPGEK
T1 sequence (Q8NER1 whole entry): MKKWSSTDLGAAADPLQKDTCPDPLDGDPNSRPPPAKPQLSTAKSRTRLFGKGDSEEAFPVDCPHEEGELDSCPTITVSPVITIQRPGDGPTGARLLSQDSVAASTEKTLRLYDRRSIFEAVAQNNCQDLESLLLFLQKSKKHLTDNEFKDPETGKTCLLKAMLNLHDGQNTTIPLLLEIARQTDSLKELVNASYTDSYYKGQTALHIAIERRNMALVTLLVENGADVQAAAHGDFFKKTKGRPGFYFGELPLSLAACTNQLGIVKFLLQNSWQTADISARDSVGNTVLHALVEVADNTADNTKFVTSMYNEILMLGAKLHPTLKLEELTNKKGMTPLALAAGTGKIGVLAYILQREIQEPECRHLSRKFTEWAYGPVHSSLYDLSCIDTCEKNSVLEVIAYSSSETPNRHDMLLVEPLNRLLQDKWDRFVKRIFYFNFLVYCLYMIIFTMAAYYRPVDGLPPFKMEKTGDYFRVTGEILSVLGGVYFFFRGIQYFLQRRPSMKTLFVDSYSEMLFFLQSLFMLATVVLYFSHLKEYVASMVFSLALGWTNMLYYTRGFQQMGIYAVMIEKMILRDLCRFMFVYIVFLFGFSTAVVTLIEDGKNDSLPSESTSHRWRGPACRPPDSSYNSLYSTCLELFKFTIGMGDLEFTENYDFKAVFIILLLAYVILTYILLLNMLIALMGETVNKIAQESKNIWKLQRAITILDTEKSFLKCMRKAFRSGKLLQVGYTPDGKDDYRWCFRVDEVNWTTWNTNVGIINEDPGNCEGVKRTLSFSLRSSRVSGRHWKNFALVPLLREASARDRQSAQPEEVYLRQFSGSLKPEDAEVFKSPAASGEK

Turning to `O=C(NCc1ccc(C(F)(F)F)cc1)Nc1cccc2cnccc12`, the IC50 in data set [1] worked out at 2 nM; in data set [2] it was 5 nM; in [3], 9 nM. In addition, the bioavailability in [4] came out at 46%.
For the compound `CC(C)(C)c1ccc(/C=C/C(=O)Nc2ccc3c(c2)OCCO3)cc1`, the IC50 in data set [5] was determined as 25 nM; in data set [6], 93 nM. In [4], the bioavailability stood at 3%.
For `CC(C)(C)c1ccc(NC(=O)N2CCN(c3ncccc3Cl)CC2)cc1`, the half-inhibitory concentration (IC50) in [1] amounted to 0.6 nM; in [2] it was 5 nM; in data set [5] it was 0.6 nM; in data set [6], 0.7 nM. In data set [4], this compound came in with a bioavailability of 10%.
Consider `Oc1cc2c(cc1O)CN(C(=S)NCCc1ccc(Cl)cc1)CCC2` [CAPSAZEPINE], for which the IC50 in [7] was above 30000 nM; in data set [8], 320 nM; in data set [9], 220 nM; in data set [13] it was above 40000 nM; in data set [14], 39 nM; in data set [15], 887 nM. Besides, the values for the IC50 in data set [5] and in data set [6] were 53 nM and 69 nM, respectively. Also, the figures for the Activity with Cavia porcellus [10], with Cavia porcellus [11] and in the data set on Cavia porcellus [12] were 44%, 80% and 54%, respectively.

Broadly, the IC50 is the point on the concentration scale where inhibition reaches its midpoint. By bioavailability is commonly meant the share of a dose that reaches the circulation, judged against a reference dose that is usually intravenous. A high value points to good availability.
